Values of other authors in US20260182571A1, “A ME[…] AND USE THEREOF” (I-TECH AB, priority 2022, published 2026).

Settings: pH 7 and 20° C.

On1ccccc1=S.On1ccccc1=S.[Cu] [CuPT, copper (II) pyrithione]
(equilibrium) water solubility: less than 0.039 mg/L
